According to patent US12421269B2, “SGLT2/DPP4 inhibitor and application thereof” (CGeneTech (Suzhou, China) CO., Ltd., priority 2019, dated 2025):
Marks after values point to notes of the source that are not given here.

What was measured:
Human-SGLT1 = target: T1, Human-SGLT1 (Homo sapiens, UniProt P13866); assay: SGLT1 glucose transport assay ([14C]-labeled glucose uptake); format: cell-based; conditions: cells stably expressing Human-SGLT1, 37° C., 2 hours
T1 sequence (P13866 1-664): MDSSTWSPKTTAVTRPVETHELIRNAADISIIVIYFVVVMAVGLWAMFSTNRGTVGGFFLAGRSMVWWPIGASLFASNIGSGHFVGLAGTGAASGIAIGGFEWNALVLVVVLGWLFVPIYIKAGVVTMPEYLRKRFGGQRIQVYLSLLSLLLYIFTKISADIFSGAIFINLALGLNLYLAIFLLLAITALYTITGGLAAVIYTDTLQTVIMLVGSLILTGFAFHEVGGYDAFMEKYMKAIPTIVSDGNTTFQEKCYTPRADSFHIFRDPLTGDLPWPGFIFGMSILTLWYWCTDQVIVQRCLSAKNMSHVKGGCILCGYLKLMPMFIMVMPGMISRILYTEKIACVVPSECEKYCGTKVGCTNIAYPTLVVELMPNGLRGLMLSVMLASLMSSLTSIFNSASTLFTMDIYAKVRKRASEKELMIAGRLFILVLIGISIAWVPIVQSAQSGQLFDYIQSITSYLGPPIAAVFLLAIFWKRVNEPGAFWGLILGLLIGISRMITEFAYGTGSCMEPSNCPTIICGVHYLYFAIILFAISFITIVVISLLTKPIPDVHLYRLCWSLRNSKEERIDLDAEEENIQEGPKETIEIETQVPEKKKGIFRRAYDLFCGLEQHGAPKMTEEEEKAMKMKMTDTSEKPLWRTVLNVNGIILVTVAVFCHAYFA
Experimental: To test the effect of compounds on the glucose transport activity of SGLT1 transporters by measuring the amount of [^14C]-labeled glucose entering highly expressed Human-SGLT1 cells.
The cells stably expressing Human-SGLT1 used for the experiments were constructed by WuXi AppTec Shanghai. The SGLT1 cells were plated in Cytostar-T (PerkinElmer) 96-well cell culture plates and cultured overnight at 5% CO2, 37° C.
(§1) Experimental buffer: 10 mM 4-hydroxyethylpiperazine ethanesulfonic acid (HEPES), 1.2 mM magnesium chloride (MgCl2), 4.7 mM potassium chloride (KCl), 2.2 mM calcium chloride (CaCl2) and 120 mM sodium chloride (NaCl).
The compounds were diluted with 100% dimethyl sulfoxide (DMSO) at a starting concentration of 1 mM, 8 points of 5-fold serial gradient dilution was made.
3 μM [^14C]-labeled methyl α-D-glucopyranoside (Methyl a-D-glucopyranosid) was prepared with experimental buffer.
Cells were treated with 49 μL of experimental buffer, 1 μL of gradient-diluted compound and 50 μL of 3 μM [^14C]-isotope-labeled glucose solution at 37° C. for 2 hours.
Readings were taken with an isotope detector (Micro beta Reader).
The data were calculated by GraphPad Prism 5.0 software using the formula: log(inhibitor) vs. response—Variable slope to obtain the IC50 values of the tested compounds, and the experimental results are shown in Table 5.

[1] = target: recombinant human dipeptidyl peptidase 4 (rhDPP4) (Homo sapiens, UniProt P27487); assay: rhDPP4 inhibitor screening experiment; format: biochemical; conditions: Gly-Pro-aminofluorescein substrate, 1 hour at room temperature
Chain of recombinant human dipeptidyl peptidase 4 (rhDPP4) (P27487 whole entry): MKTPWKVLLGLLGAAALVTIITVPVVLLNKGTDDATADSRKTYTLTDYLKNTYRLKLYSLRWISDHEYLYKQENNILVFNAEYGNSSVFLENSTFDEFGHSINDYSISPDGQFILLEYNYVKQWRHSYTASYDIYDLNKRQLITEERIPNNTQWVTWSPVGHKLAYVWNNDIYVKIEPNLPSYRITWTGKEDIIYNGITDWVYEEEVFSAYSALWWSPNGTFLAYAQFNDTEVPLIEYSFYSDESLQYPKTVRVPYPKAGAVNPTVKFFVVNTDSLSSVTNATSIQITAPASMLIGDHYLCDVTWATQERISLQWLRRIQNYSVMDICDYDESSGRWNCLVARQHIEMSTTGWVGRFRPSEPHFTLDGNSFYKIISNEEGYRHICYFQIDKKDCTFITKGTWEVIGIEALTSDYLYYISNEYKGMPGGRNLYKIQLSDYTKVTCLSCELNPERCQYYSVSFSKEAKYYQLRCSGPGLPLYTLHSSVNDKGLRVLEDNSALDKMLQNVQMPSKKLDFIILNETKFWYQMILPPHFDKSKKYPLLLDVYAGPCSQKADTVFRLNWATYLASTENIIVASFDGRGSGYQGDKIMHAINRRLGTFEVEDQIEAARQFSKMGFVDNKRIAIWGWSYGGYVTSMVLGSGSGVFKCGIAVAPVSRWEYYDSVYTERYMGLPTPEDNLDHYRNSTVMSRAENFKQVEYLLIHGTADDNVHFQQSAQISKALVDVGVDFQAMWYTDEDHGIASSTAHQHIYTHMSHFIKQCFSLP
Excerpt: To evaluate the inhibitory activity of compounds against recombinant human dipeptidyl peptidase 4 (rhDPP4) by measuring the half-inhibitory concentration (IC50) values of the compounds. In the experiment, rhDPP4 was used to catalyze the generation of […] from substrate, the substrate was a luminescent precursor […], and the substrate and luciferase were reacted to generate a light signal, the intensity of the light signal was proportional to the enzyme activity.
• 1) The gradient diluted compounds (4-fold fold-dilution, 10 assay concentrations) were transferred 250 nL into a 384-well plate (PerkingElmer-6007299) using a non-contact nano-acoustic pipetting system (ECHO), and dimethyl sulfoxide (DMSO) concentration was 0.5% in the final reaction system. Blank control wells (containing DMSO, substrate and 10 mM Tris-HCl) and positive control wells (containing DMSO, substrate and rhDPP4) were set up. • 2) The pre-dispensed frozen buffer containing luciferase was removed and restored to room temperature, and then the substrate was added to configure a working solution with a substrate concentration of 20 μM. RhDPP4 was prepared as a working solution of 0.2 ng/mL using 10 mM Tris-HCl (pH 8.0) aqueous solution. • 3) 25 μL of working solution containing 20 μM substrate and 25 μL of working solution containing 0.2 ng/mL rhDPP4 were added to a 384-well plate with the addition of the compound, then the mixture was centrifuged for 30 s at 1000 rpm, the plate was sealed with aluminum foil sealing film and incubated for 1 hour at room temperature. • 4) The intensity of the light signal was detected by EnVision, a multifunctional microplate reader. The raw data were used to calculate the inhibition of rhDPP4 activity by the compound. % of inhibition activity=100−(compound well signal value−blank control well signal value)/(positive control well signal value−blank control well signal value)*100. • The percent of inhibition was imported into GraphPad Prism software for data processing to derive the corresponding dose-effect curves and to derive the IC50 values of the tested compounds.

Human-SGLT2 = target: T2, Human-SGLT2 (Homo sapiens, UniProt P31639); assay: SGLT2 glucose transport assay ([14C]-labeled glucose uptake); format: cell-based; conditions: cells stably expressing Human-SGLT2, 37° C., 2 hours
T2 sequence (P31639 1-672): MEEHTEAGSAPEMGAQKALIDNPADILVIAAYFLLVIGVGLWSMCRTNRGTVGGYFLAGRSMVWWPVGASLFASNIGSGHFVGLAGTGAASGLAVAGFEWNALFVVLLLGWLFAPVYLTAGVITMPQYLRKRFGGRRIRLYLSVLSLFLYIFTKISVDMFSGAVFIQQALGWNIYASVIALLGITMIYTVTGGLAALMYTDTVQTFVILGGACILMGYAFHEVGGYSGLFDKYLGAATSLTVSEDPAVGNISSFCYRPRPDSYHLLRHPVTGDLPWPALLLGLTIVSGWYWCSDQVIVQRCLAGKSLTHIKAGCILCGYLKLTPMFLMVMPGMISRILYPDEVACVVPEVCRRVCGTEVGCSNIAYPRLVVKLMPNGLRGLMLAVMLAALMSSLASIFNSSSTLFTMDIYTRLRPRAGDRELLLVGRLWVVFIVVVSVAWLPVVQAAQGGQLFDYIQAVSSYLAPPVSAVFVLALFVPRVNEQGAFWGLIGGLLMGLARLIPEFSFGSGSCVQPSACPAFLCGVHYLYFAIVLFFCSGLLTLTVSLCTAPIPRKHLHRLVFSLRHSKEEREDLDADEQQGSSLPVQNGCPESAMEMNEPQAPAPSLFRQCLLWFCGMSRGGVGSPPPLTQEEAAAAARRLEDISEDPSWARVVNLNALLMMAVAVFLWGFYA
Experimental: To test the effect of compounds on the glucose transport activity of SGLT2 transporters by measuring the amount of [^14C]-labeled glucose entering highly expressed Human-SGLT2 cells.
The cells stably expressing Human-SGLT2 used for the experiments were constructed by WuXi AppTec Shanghai. SGLT2 cells were plated in 96-well cell culture plates (Greiner) and cultured overnight at 5% CO2, 37° C.
as §1
Termination buffer: 10 mM 4-hydroxyethylpiperazine ethanesulfonic acid (HEPES), 1.2 mM magnesium chloride (MgCl2), 4.7 mM potassium chloride (KCl), 2.2 mM calcium chloride (CaCl2), 120 mM sodium chloride (NaCl) and 1 μM LX4211.
The compounds were diluted with 100% dimethyl sulfoxide (DMSO) at a starting concentration of 10 μM, 8 points of 5-fold serial gradient dilution was made.
6 μM [^14C]-labeled methyl α-D-glucopyranoside was prepared with experimental buffer.
Cells were treated with 49 μL of experimental buffer, 1 μL of gradient-diluted compound, and 50 μL of 6 μM [^14C]-isotope-labeled glucose solution at 37° C. for 2 hours.
The liquid in the wells was aspirated and the cells were washed 3 times with termination buffer.
The cells were lysed with 50 μL of 10% sodium hydroxide solution, and the cell lysate was aspirated into a scintillation tube, and 2 mL of scintillation solution was added.
Readings were taken with an isotope detector (Tricarb).
The data were calculated by GraphPad Prism 5.0 software using the formula: log (inhibitor) vs. response—Variable slope to obtain the IC50 values of the tested compounds, and the experimental results are shown in Table 5.

SD Rat = assay: Oral glucose tolerance (OGTT) in rats; format: in vivo; conditions: male SD rats, single gavage dose, Canagliflozin 3 mg/kg, test compound 10 mg/kg
Experimental: The animals will be acclimatized in the animal room for 1 week after arrival at the facility.
The animals are fasted for 16 hours in the metabolic cage and given the drug or solvent (5 mL/kg) according to the table above, followed immediately by 50% glucose solution (2 g/kg, 4 mL/kg).
After 1 hour of glucose administration, the animals resumed feeding, and blood samples were collected at 0 min, 20 min, 40 min, 60 min, 90 min and 120 min for blood glucose measurement; urine at 0 to 24 hours was used for urinary glucose (mg/200 g) and urine volume test, respectively.
All values were expressed as mean values. Statistical analysis was performed using Graphpad Prism 6 single factor analysis of variance Tukey's multiple comparison test. The p-value less than 0.05 was considered statistically significant.

Row | IC50 (Human-SGLT1) [nM] | IC50 [1] [nM] | IC50 (Human-SGLT2) [nM] | Structure (SMILES) | OGTT blood glucose levels AUC0-2hr (SD Rat; glucose 2 g/kg) [mmol/L/min] | Urinary glucose level (SD Rat; urine 0 to 24 hours) | Urine volume (SD Rat; urine 0 to 24 hours)
1 | 33.3 | 166 | 5.96 | CS[C@H]1O[C@@H](c2cc(C)c(Cl)c(Cc3ccc(OC4CCN([C@H]5CO[C@H](c6cc(F)ccc6F)[C@@H](N)C5)C4)cc3)c2)[C@H](O)[C@@H](O)[C@@H]1O (some centres unmarked) [WX004] |  |  | 
2 | 2070 | 32.5 | 19.7 | COc1cc(F)c(Cc2ccc(O[C@@H]3CCN([C@H]4CO[C@H](c5cc(F)ccc5F)[C@@H](N)C4)C3)cc2)cc1[C@@H]1O[C@H](SC)[C@@H](O)[C@H](O)[C@H]1O [WX007] |  |  | 
3 | 521 |  | 7.39 | CS[C@H]1O[C@@H](c2cc(Cc3ccc(O[C@@H]4CCN([C@H]5CO[C@H](c6cc(F)ccc6F)[C@@H](N)C5)C4)cc3)c(F)cc2C)[C@H](O)[C@@H](O)[C@@H]1O [WX008] |  |  | 
4 | 28.5 | 116 | 5.05 | CS[C@H]1O[C@@H](c2cccc(Cc3ccc(OC4CCN([C@H]5CO[C@H](c6cc(F)ccc6F)[C@@H](N)C5)C4)cc3)c2)[C@H](O)[C@@H](O)[C@@H]1O (some centres unmarked) [WX005] |  |  | 
5 | 187 | 104 | 4.84 | CS[C@H]1O[C@@H](c2cc(Cc3ccc(O[C@@H]4CCN([C@H]5CO[C@H](c6cc(F)ccc6F)[C@@H](N)C5)C4)cc3)c(Cl)cc2C)[C@H](O)[C@@H](O)[C@@H]1O [WX002] |  |  | 
6 | 980 | 112 | 332 | CS[C@H]1O[C@@H](c2ccc(Cl)c(Cc3ccc(O[C@@H]4CCN([C@H]5CO[C@H](c6cc(F)ccc6F)[C@@H](N)C5)C4)cc3)c2C)[C@H](O)[C@@H](O)[C@@H]1O [WX003] |  |  | 
7 |  |  |  | Cc1ccc([C@@H]2O[C@H](CO)[C@@H](O)[C@H](O)[C@H]2O)cc1Cc1ccc(-c2ccc(F)cc2)s1 [Canagliflozin, reference compound] | 945 | 1317**** mg/200 gBW | 24.4*** mL/200 gBW
